These results are taken from article PMC10424242, “Macrocyclic Peptidomimetic Plasmepsin X Inhibitors with Potent In Vitro and In Vivo Antimalarial Activity” (Journal of Medicinal Chemistry, 2023).

Data set [1] has as its target recombinant P. falciparum PMX (Plasmodium falciparum, UniProt Q8IAS0). The data set is described as follows: Recombinant P. falciparum PMX inhibition assay (fluorogenic substrate Rh2N). In kind it is biochemical. As for the experimental part: The fluorescence of this peptide is quenched by the spatial proximity of the DABCYL/EDANS groups in the uncleaved peptide and is increased upon cleavage at the internal F–I bond. […] Control wells contained no inhibitor, and the plate was blanked against the substrate only in DB. […] All experiments were performed in duplicate.

Data set [2] deals with PMIV (Plasmodium falciparum, UniProt Q8IM16). The data set is described as follows: FRET-based PMIV inhibition assay. It is filed as biochemical, P. falciparum. As for the experimental part: (§1) A fluorescence resonance energy transfer (FRET)-based assay was performed to assess the ability of the compounds to inhibit PMIV, CatD, and BACE1. Serial dilutions of test compounds were dispensed in a white 96-well plate. […] The mixture was incubated for 20 min at 37 °C. […] IC50 values were calculated with GraphPad Prism 8.0 using the nonlinear regression, variable slope (four parameters). Compounds were tested in triplicate.

Data set [3] addresses cathepsin D (CatD) (Homo sapiens, UniProt P07339). The data set is described as follows: FRET-based CatD inhibition assay (selectivity counter screen). In kind it is biochemical. As for the experimental part: as §1
(A counterscreen serves to expose hits that act by an unwanted route or on another target.)

For data set [4], the target named is BACE1 (Homo sapiens, UniProt P56817). Put plainly: FRET-based BACE1 inhibition assay (selectivity counter screen). In kind it is biochemical. As for the experimental part:
as §1

Data set [5] in a line: Liver microsomal metabolic stability. In kind it is in vitro ADME, mouse. The conditions noted are these: pooled liver microsomes, pH 7.4, mouse liver microsomes, 5 μM; for microsomal CLint at 1 h, 5 μM: read-out: microsomal stability CL(int). As for the experimental part: Microsomal stability assays are performed as described elsewhere.[41] Test compounds and pooled mouse liver microsomes are incubated in potassium phosphate buffer in the presence of the cofactor NADPH at 37 °C. Reaction mixtures (700 μL) contain a final concentration of 5 μM test compound, 0.05% DMSO, 0.5 mg/mL microsomes, and ∼0.7–0.9 mM NADPH in 100 mM potassium phosphate buffer at pH 7.4. Reactions are terminated by the addition of 100 μL of the reaction mixture to 900 μL of acetonitrile after 0, 5, 15, 30, 45, and 60 min of incubation. Samples were centrifuged, and the resultant supernatant was analyzed by ultra-performance liquid chromatography–tandem mass spectrometry (UPLC-MS/MS). The amount of remaining compound is calculated and compared to the initial amount of test compound (zero time point). Verapamil is used as a positive control, and samples prepared without cofactor NADPH are used as a negative control (0 and 60 min). The in vitro metabolic stability parameters (half-life value (t1/2) and intrinsic clearance value (Clint)) are calculated from the slope of the Ln of concentration remaining vs the time curve.
For orientation: Liver microsomes are a subcellular fraction often used to study metabolism.

Data set [6] can be described thus: Plasma protein binding (rapid equilibrium dialysis). In kind it is in vitro ADME. The conditions noted are these: pH 7.4, mouse plasma, 2 h at 37 °C. As for the experimental part:
Plasma protein binding was performed with rapid equilibrium dialysis (RED) device inserts containing a dialysis membrane with a molecular weight cut-off of 8000 Daltons. Inserts were placed in the single-use RED plate without prior preparation.
The test compound at a concentration of 5 μM was added to mouse plasma and dialyzed against phosphate-buffered saline (PBS, pH 7.4) for 2 h at 37 °C. Propranolol hydrochloride was used as a positive control (high PPB), and fluconazole was used as negative control (low PPB). After dialysis, the drug concentration in the buffer and plasma compartments was quantified by liquid chromatography and tandem mass spectrometry (LC-MS/MS) analysis.
(In equilibrium dialysis free small molecules cross a membrane that holds back macromolecules.)

Data set [7] deals with P. falciparum 3D7 parasites. Put plainly: Microscopy of synchronized P. falciparum cultures treated from ring stage (development and egress). In kind it is cell-based. The conditions noted are these: 20 nM.
Description: Asexual blood-stage forms of P. falciparum strains 3D7 and Dd2 were maintained at 37 °C in an atmosphere of 1% O2, 5% CO2, and 94% N2 in human RBCs in RPMI 1640 medium containing AlbuMAX II (Thermo Fisher Scientific) and supplemented with 2 mM L-glutamine. The synchronization of parasite cultures was as described previously.[39] Briefly, this involved isolating mature schizont forms by centrifugation over cushions of 70% (v/v) isotonic Percoll (GE Healthcare, Life Sciences) and then allowing the parasites to undergo rupture in the presence of fresh RBCs for 2 h under gentle shaking conditions (100 rpm). Residual schizonts were then removed through a second Percoll separation, followed by treatment with 5% (w/v) sorbitol to finally obtain a highly synchronized preparation of newly invaded ring-stage parasites.
Growth stage progression and parasite morphology were also monitored by microscopic examination at selected time points using Giemsa-stained thin blood films.
For data set [8], the system named is maturation of the PMX substrate SUB1 (p54 to p47). Put plainly: Western blot of SUB1 maturation in treated schizonts. In kind it is cell-based, P. falciparum. As to conditions: 20 nM, 44 h. As for the experimental part: This phenotype is characteristic of the inhibition of PMX.
(§2) Synchronous parasite cultures were cultured from ring to schizont stage (∼44 h) in the presence of DMSO alone (0.04% v/v; control) or macrocycle compounds (20 nM final concentration). Schizonts were isolated by Percoll enrichment (still in the presence of the test compound), then either immediately frozen or further incubated in the absence of the drug but in the presence of C2 (1 μM) for 1 h at 37°C in the absence of added RBCs or for 3.5 h in the presence of added RBCs. The schizonts without added RBCs were then frozen too, and all schizont samples were then thawed into CHAPS–urea extraction buffer, subjected to sodium dodecyl sulfate-polyacrylamide gel electrophoresis (SDS-PAGE), and analyzed by Western blot, probing with antibodies against SUB1 or RAP1. For schizonts cultured in the presence of added RBCs, ring formation was assessed in two ways: cultures were examined microscopically by Giemsa stain of thin films and were also fixed with glutaraldehyde and processed for quantification of ring formation by flow cytometry as described above.

Data set [9] deals with maturation of RAP1, substrate of PMIX. The data set is described as follows: Western blot of RAP1 maturation in treated schizonts. It is filed as cell-based, P. falciparum. The conditions noted are these: 20 nM, 44 h.
Excerpt: Figure 4 Macrocycle PMX inhibitors have no effect on intraerythrocytic parasite maturation but prevent egress and maturation of SUB1. […] Scale bar, 20 μm. (B) Simplified schematic of proteolytic maturation of the egress effector SUB1. Conversion of the precursor form to p54 is through autocatalytic removal[32] of the prodomain region (PD), whereas conversion of p54 to p47 is mediated by PMX.[15],[16],[33] (C) Left, Western blot analysis of P. falciparum 3D7 schizonts allowed to mature in the presence of the indicated macrocycle compounds (20 nM), showing defective SUB1 maturation in parasites treated with the indicated macrocycle compounds. Right, Western blot of the same extracts probed with a monoclonal antibody (mAb) specific to the rhoptry protein RAP1, which is a substrate for cleavage by the related P. falciparum protease PMIX. The compounds had no discernible effect on the maturation of RAP1. The results shown are typical of 3 independent experiments.
as §2

For data set [10], the system named is SUB1 p54 to p47 conversion (PMX activity). Put plainly: Washout assay, SUB1 maturation by Western blot. In kind it is cell-based, P. falciparum. The conditions noted are these: 20 nM ∼44 h, C2 1 μM for 1 h. As for the experimental part:
(§3) The schizont cultures lacking added RBCs were supplemented with compound C2, which blocks the discharge of exonemes, the parasite secretory organelles in which PMX and SUB1 are stored before egress. The schizonts without added RBCs were sampled for Western blot analysis, while the schizont cultures containing RBCs were examined by microscopy and flow cytometry after a further 4 h in culture to quantify schizont rupture and new ring formation.
as §2

Data set [11] relates to P. falciparum schizonts. The data set is described as follows: Washout assay, schizont rupture and new ring formation. In kind it is cell-based. The conditions noted are these: 20 nM ∼44 h, […] with added RBCs. As for the experimental part:
as §3, §2

Setting [12] is: recombinant PMX, read-out: PMX, nM (IC50).

The structures appear in SMILES notation. Where two headings read alike, the source gives them in different places.

Sequence of PMIV (Q8IM16 122-449): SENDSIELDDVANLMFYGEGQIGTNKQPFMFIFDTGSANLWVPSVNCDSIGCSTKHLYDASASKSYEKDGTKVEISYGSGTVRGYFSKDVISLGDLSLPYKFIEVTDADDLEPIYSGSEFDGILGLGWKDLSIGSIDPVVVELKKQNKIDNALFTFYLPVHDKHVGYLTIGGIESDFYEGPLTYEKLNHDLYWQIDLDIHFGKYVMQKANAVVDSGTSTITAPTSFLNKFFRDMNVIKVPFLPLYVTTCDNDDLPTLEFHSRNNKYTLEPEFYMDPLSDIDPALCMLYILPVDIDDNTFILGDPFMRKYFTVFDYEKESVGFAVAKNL
Sequence of recombinant P. falciparum PMX (Q8IAS0 222-573): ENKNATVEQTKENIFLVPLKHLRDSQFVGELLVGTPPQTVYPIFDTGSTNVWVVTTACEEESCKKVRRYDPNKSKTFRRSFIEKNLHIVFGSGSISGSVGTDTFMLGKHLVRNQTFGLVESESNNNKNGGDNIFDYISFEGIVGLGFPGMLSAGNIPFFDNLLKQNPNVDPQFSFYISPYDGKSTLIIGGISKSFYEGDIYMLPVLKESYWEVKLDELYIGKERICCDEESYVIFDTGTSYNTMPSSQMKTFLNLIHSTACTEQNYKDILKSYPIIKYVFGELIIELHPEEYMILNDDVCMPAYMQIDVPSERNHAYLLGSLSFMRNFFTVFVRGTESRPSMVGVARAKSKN
Sequence of BACE1 (P56817 46-501): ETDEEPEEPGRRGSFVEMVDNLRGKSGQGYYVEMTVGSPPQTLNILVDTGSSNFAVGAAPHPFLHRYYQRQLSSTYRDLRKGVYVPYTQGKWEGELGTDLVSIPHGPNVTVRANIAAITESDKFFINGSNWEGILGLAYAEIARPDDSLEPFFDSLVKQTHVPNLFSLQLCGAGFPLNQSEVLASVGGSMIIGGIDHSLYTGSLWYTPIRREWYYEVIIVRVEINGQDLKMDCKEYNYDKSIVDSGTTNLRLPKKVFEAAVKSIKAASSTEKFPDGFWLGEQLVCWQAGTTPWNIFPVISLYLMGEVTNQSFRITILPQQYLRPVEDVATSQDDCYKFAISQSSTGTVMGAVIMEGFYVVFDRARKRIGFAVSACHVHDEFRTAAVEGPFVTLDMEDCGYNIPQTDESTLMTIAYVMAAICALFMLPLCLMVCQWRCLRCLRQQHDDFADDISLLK
Sequence of cathepsin D (CatD) (P07339 65-412): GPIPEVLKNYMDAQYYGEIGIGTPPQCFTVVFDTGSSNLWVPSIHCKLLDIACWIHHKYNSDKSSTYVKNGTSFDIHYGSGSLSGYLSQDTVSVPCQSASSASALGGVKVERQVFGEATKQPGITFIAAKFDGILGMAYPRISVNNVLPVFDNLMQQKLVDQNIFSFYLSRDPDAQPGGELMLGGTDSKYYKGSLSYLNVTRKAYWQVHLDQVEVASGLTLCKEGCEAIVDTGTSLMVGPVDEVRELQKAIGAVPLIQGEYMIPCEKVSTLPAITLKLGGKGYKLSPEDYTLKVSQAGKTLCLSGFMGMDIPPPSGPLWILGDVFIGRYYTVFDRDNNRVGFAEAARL

On to `CCCN1CCCCOc2cccc(c2)C[C@@H]([C@H](O)CNC(C)(C)c2cccc(OC)c2)NC(=O)c2cccc(c2)C1=O` [7a, (S)-4-((R)-1-Hydroxy-2-((2-(3-methoxyphenyl)propan-2-yl)amino)ethyl)-12-propyl-7-oxa-3,12-diaza-1,6(1,3)-dibenzenacyclotridecaphane-2,13-dione], for which the IC50 in data set [1] (setting [12]) came to 4.1 ± 0.3 nM; in [2] (read-out: PMIV, nM (IC50)), 60 ± 3 nM; in [3], 270 ± 20 nM; in data set [4], 380 ± 20 nM. Also, the half-life (as a rule, the time needed for the level to fall by half in the phase considered) at 1 h, 5 μM in [5] is 8.67 min. Besides, in data set [5], the microsomal CLint at 1 h, 5 μM was 160 µL/min/mg. Also, the fraction unbound (usually free concentration divided by total concentration) at 2 h, 5 µM in data set [6] is 0.029. Besides, in data set [7] (44 h), the “intraerythrocytic development of ring-stage parasites to schizont stage” value is recorded as “Development of ring-stage parasites to the multinucleated schizont stage occurred similarly in all cultures”. Besides, in data set [7] (44 h and extended incubation), the “schizont rupture (egress) and appearance of new rings” value was “schizont rupture and appearance of new rings did not occur”. Moreover, in data set [8], the “maturation of SUB1 (p54 to p47)” value is listed as “clear defect in maturation of the PMX substrate SUB1”. Also, in [9], the “maturation of RAP (PMIX substrate)” value is given as “do not affect PMIX activity at these concentrations”. Moreover, the “SUB1 p54 to p47 conversion after washout” value in [10] was “efficient conversion of the accumulated SUB1 p54 intermediate to the p47 form”. In addition, in data set [11], the “new ring formation after washout” value is “allowed an efficient generation of new rings”.

As to `CCCN1CCCCc2cccc(c2)C[C@@H]([C@H](O)CNC(C)(C)c2cccc(OC)c2)NC(=O)c2cccc(c2)C1=O` [7j, (S)-4-((R)-1-Hydroxy-2-((2-(3-methoxyphenyl)propan-2-yl)amino)ethyl)-11-propyl-3,11-diaza-1,6(1,3)-dibenzenacyclododecaphane-2,12-dione], the IC50 in data set [1] (Table 3, read-out: PMX, nM (as listed in Table 3)) came to 3.8 ± 0.69 nM; in [1] (setting [12]), 3.8 ± 0.69 nM; in data set [2] (Table 3, read-out: PMIV, nM (as listed in Table 3)) it was 74 ± 4 nM; in data set [2] (read-out: PMIV, nM (IC50)), 74 ± 4 nM; in data set [3] it was 1370 ± 70 nM; in data set [4] it was 3020 ± 150 nM. The compound also returned a half-life at 1 h, 5 μM in data set [5] of 14.4 min. In addition, the microsomal CLint at 1 h, 5 μM in data set [5] is 96.4 µL/min/mg. Also, in [6], the fraction unbound at 2 h, 5 µM was 0.0067. The “maturation of SUB1 (p54 to p47)” value in data set [8] is listed as “clear defect in maturation of the PMX substrate SUB1”. Moreover, the “maturation of RAP (PMIX substrate)” value in [9] is given as “do not affect PMIX activity at these concentrations”. Further, in data set [10], the “SUB1 p54 to p47 conversion after washout” value was “efficient conversion of the accumulated SUB1 p54 intermediate to the p47 form”. Besides, the “new ring formation after washout” value in data set [11] is reported as “allowed an efficient generation of new rings”.
